Experimental data as given in patent US20240352016A1, “A CYCLIN-DEPENDENT KINASE INHIBITOR” (TAIZHOU EOC PHARMA CO., LTD., priority 2021, published 2024).
pIC50: −log10 of the molar value. Structures can show the parent of a compound that is named as a salt. Where two headings read alike, the source gives them in different places.

Molecular target: T1, CDK7/Cyclin H/MAT1 (Homo sapiens, UniProt P50613)
T1 construct: made in house; host or cells: insect cell
Test: CDK kinase activity mobility shift assay (MSA)
Type: biochemical
Description: Human CDKs, cyclins and other partner proteins were expressed in insect cell, purified individually, reconstituted and then purified to homogeneity before being used for kinase activity assay.
Kinase activity of CDKs were determined by mobility shift assay (MSA), in which the formation of a phosphorylated fluorescence-labelled peptide in reaction mixture was monitored through capillary electrophoresis in a microfluidic environment. […] The mixtures were incubated at 27° C. for 40 min before being quenched with 4 μl 80 mM EDTA, then read on a LabChip EZ Reader II (Caliper Life Science). IC50 of compound for CDKs was calculated by Prism (GraphPad) using a four-parameter nonlinear curve fit.

[1] = The CDK may be CDK7, mobility shift assay, 2 mM ATP, 3 nM CDK/Cyclin, 27° C. for 40 min, read-out: IC50 (CDK inhibition)

T1 sequence (P50613 whole entry): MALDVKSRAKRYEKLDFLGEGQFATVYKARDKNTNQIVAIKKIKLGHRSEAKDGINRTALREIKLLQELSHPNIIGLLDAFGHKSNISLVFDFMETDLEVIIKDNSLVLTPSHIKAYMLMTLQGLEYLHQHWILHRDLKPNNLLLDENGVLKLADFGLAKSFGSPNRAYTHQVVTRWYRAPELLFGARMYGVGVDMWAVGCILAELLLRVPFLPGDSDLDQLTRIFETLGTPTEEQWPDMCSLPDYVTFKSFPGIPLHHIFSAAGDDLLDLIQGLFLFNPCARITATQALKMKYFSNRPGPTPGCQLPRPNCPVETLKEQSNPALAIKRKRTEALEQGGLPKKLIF
T1 sequence (P51946 whole entry partner): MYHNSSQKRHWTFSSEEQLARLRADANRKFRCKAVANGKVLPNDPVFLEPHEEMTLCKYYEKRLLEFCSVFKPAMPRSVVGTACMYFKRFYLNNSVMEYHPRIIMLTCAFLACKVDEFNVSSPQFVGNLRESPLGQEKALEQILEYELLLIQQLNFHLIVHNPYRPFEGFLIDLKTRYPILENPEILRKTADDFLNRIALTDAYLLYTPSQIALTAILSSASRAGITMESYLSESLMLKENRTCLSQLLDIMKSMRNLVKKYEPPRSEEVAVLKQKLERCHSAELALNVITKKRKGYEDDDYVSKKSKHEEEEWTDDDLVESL
T1 sequence (P51948 whole entry partner): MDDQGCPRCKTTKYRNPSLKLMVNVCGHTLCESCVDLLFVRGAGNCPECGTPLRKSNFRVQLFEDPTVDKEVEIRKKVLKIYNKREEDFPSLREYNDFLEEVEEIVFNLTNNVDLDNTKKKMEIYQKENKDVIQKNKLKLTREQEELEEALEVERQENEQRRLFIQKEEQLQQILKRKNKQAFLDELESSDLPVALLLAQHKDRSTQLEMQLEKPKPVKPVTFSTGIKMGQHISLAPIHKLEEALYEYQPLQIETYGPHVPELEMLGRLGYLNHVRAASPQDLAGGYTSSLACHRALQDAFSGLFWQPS

| SMILES | pIC50 [1] | pIC50 |
| --- | --- | --- |
| CC(C)n1cnc2c(NCc3ccccc3-n3ccc(CO)n3)nc(N3CCC(N)CC3)nc21 [Compound I-1, (1-(2-(((2-(4-aminopiperidin-1-yl)-9-isopropyl-9H-purin-6-yl)amino)methyl)phenyl)-1H-pyrazol-3-yl)methanol] | > 7.00 |  |
| CC(C)n1cnc2c(NCc3ccccc3-n3cccn3)nc(N3CCC(C4CCNCC4)CC3)nc21 [Compound I-5, N-(2-(1H-pyrazol-1-yl)benzyl)-2-([4,4′-bipiperidin]-1-yl)-9-isopropyl-9H-purin-6-amine hydrochloride] | 6.30 to 7.00 |  |
| CC(C)n1cnc2c(NCc3ccccc3-n3cccn3)nc(N3CC[C@H](N)C3)nc21 [Compound I-9, (S)—N-(2-(1H-pyrazol-1-yl)benzyl)-2-(3-aminopyrrolidin-1-yl)-9-isopropyl-9H-purin-6-amine] | > 7.00 |  |
| CC(C)n1cnc2c(NCc3ccccc3-n3cccn3)nc(N3CCC[C@@H](N)C3)nc21 [Compound I-11, (R)—N-(2-(1H-pyrazol-1-yl)benzyl)-2-(3-aminopiperidin-1-yl)-9-isopropyl-9H-purin-6-amine] | > 7.00 |  |
| CC(C)n1cnc2c(NCc3ccccc3-n3cccn3)nc(N[C@H]3CCCNC3)nc21 [Compound I-13, (S)-N6-(2-(1H-pyrazol-1-yl)benzyl)-9-isopropyl-N2-(piperidin-3-yl)-9H-purine-2,6-diamine] | 6.30 to 7.00 |  |
| CC(C)n1cnc2c(NCc3ccccc3-n3cccn3)nc(NCC3(O)CCNCC3)nc21 [Compound I-14, 4-(((6-((2-(1H-pyrazol-1-yl)benzyl)amino)-9-isopropyl-9H-purin-2-yl)amino)methyl)piperidin-4-ol trihydrochloride] | 6.30 to 7.00 |  |
| CC(C)n1cnc2c(NCc3ccccc3-n3cccn3)nc(N3CCC(C(=O)N(C)C)CC3)nc21 [Compound I-15, 1-(6-((2-(1H-pyrazol-1-yl)benzyl)amino)-9-isopropyl-9H-purin-2-yl)-N,N-dimethylpiperidine-4-carboxamide] | < 6.00 |  |
| CC(C)n1cnc2c(NCc3ccccc3-n3ccc(C(C)(C)O)n3)nc(NC3CCNCC3)nc21 [Compound I-17, 2-(1-(2-(((9-isopropyl-2-(piperidin-4-ylamino)-9H-purin-6-yl)amino)methyl)phenyl)-1H-pyrazol-3-yl)propan-2-ol] | > 7.00 |  |
| CC(C)n1cnc2c(NCc3c(Cl)cccc3-n3ccc(C(C)(C)O)n3)nc(NC3CCNCC3)nc21 [Compound I-18, 2-[1-[3-chloro-2-[[[9-isopropyl-2-(4-piperidylamino)purin-6-yl]amino]methyl]phenyl]pyrazol-3-yl]propan-2-ol] | > 7.00 |  |
| CCN(CC)C1CCN(c2nc(NCc3ccccc3-n3cccn3)c3ncn(C(C)C)c3n2)CC1 [Compound I-20, 2-[4-(diethylamino)-1-piperidyl]-9-isopropyl-N-[(2-pyrazol-1-ylphenyl)methyl]purin-6-amine] | > 7.00 |  |
| CC(C)n1cnc2c(NCc3ccccc3-n3cccn3)nc(NC(=O)C3CCNCC3)nc21 [Compound I-21, N-(6-((2-(1H-pyrazol-1-yl)benzyl)amino)-9-isopropyl-9H-purin-2-yl)piperidine-4-carboxamide] | < 6.00 |  |
| CC(C)n1cnc2c(NCc3c(F)cccc3-n3cccn3)nc(N3CCC(N)CC3)nc21 [Compound I-24, 2-(4-aminopiperidin-1-yl)-N-(2-fluoro-6-(1H-pyrazol-1-yl)benzyl)-9-isopropyl-9H-purin-6-amine hydrochloride] | > 7.00 |  |
| NC1CCN(c2nc(NCc3ccccc3-n3cccn3)c3ncn(C4CCCC4)c3n2)CC1 [Compound I-25, N-(2-(1H-pyrazol-1-yl)benzyl)-2-(4-aminopiperidin-1-yl)-9-cyclopentyl-9H-purin-6-amine] | > 7.00 |  |
| CC(C)n1cnc2c(NCc3ccccc3-n3cccn3)nc(N3CCC(N(C)C)CC3)nc21 [Compound I-26, N-(2-(1H-pyrazol-1-yl)benzyl)-2-(4-(dimethylamino)piperidin-1-yl)-9-isopropyl-9H-purin-6-amine] | > 7.00 |  |
| c1ccc(-n2cccn2)c(CNc2nc(N3CCNCC3)nc3c2ncn3C2CCCC2)c1 [Compound I-27, N-(2-(1H-pyrazol-1-yl)benzyl)-9-cyclopentyl-2-(piperazin-1-yl)-9H-purin-6-amine] | > 7.00 |  |
| CC(C)n1cnc2c(NCc3ccccc3-n3cccn3)nc(N3CCNCC3)nc21 [Compound I-28, N-(2-(1H-pyrazol-1-yl)benzyl)-9-isopropyl-2-(piperazin-1-yl)-9H-purin-6-amine] |  | > 7.00 |

| SMILES | pIC50 [1] | pIC50 |
| --- | --- | --- |
| CC(C)n1cnc2c(NCc3ccccc3-n3cccn3)nc(N3CCC(O)(CN(C)C)CC3)nc21 [Compound I-29, 1-(6-((2-(1H-pyrazol-1-yl)benzyl)amino)-9-isopropyl-9H-purin-2-yl)-4-((dimethylamino)methyl)piperidin-4-ol] | 6.30 to 7.00 |  |
| CC(C)n1cnc2c(NCc3ccccc3-n3cccn3)nc(NC3CCNCC3)nc21 [Compound I-30, N6-(2-(1H-pyrazol-1-yl)benzyl)-9-isopropyl-N2-(piperidin-4-yl)-9H-purine-2,6-diamine hydrochloride] | 6.30 to 7.00 |  |
| CC(C)n1cnc2c(NCc3ccccc3-n3cccn3)nc(N3CCC(O)(Cn4cc(N)cn4)CC3)nc21 [Compound I-31, 1-(6-((2-(1H-pyrazol-1-yl)benzyl)amino)-9-isopropyl-9H-purin-2-yl)-4-((4-amino-1H-pyrazol-1-yl)methyl)piperidin-4-ol] | 6.30 to 7.00 |  |
| CC(C)n1cnc2c(NCc3ccccc3-n3cccn3)nc(N3CCC(CN(C)C)CC3)nc21 [Compound I-32, N-(2-(1H-pyrazol-1-yl)benzyl)-2-(4-((dimethylamino)methyl)piperidin-1-yl)-9-isopropyl-9H-purin-6-amine] | 6.30 to 7.00 |  |
| CC(C)n1cnc2c(NCc3ccccc3-n3cccn3)nc(NC3CN4CCC3CC4)nc21 (stereo not shown) [Compound I-33, N6-(2-(1H-pyrazol-1-yl)benzyl)-9-isopropyl-N2-(quinuclidin-3-yl)-9H-purine-2,6-diamine] | 6.30 to 7.00 |  |
| CC(C)n1cnc2c(NCc3ccccc3-n3cccn3)nc(N3CCC(CN)C3)nc21 (stereo not shown) [Compound I-34, N-(2-(1H-pyrazol-1-yl)benzyl)-2-(3-(aminomethyl)pyrrolidin-1-yl)-9-isopropyl-9H-purin-6-amine] | 6.30 to 7.00 |  |
| CC(C)n1cnc2c(NCc3ccccc3-n3cccn3)nc(N3CCC(O)(Cn4cc(C(F)(F)F)cn4)CC3)nc21 [Compound I-35, 1-(6-((2-(1H-pyrazol-1-yl)benzyl)amino)-9-isopropyl-9H-purin-2-yl)-4-((4-(trifluoromethyl)-1H-pyrazol-1-yl)methyl)piperidin-4-ol] | < 6.00 |  |
| CC(C)n1cnc2c(NCc3ccccc3-n3cccn3)nc(N3CCC(N)C3)nc21 (stereo not shown) [Compound I-36, N-(2-(1H-pyrazol-1-yl)benzyl)-2-(3-aminopyrrolidin-1-yl)-9-isopropyl-9H-purin-6-amine] | 6.30 to 7.00 |  |
| CC(C)n1cnc2c(NCc3ccccc3-n3cccn3)nc(N3CCC(O)CC3)nc21 [Compound I-37, 1-(6-((2-(1H-pyrazol-1-yl)benzyl)amino)-9-isopropyl-9H-purin-2-yl)piperidin-4-ol] | 6.30 to 7.00 |  |
| CC(C)n1cnc2c(NCc3ccccc3-n3cccn3)nc(N3CCC(C(N)=O)CC3)nc21 [Compound I-38, 1-(6-((2-(1H-pyrazol-1-yl)benzyl)amino)-9-isopropyl-9H-purin-2-yl)piperidine-4-carboxamide] | 6.30 to 7.00 |  |
| CC(C)n1cnc2c(NCc3ccccc3-n3cccn3)nc(N[C@H]3CC[C@H](O)CC3)nc21 [Compound I-39, (1R,4R)-4-((6-((2-(1H-pyrazol-1-yl)benzyl)amino)-9-isopropyl-9H-purin-2-yl)amino)cyclohexan-1-ol] | 6.00 to 6.30 |  |
| CC(C)n1cnc2c(NCc3ccccc3-n3cccn3)nc(N3CCC(CO)CC3)nc21 [Compound I-40, (1-(6-((2-(1H-pyrazol-1-yl)benzyl)amino)-9-isopropyl-9H-purin-2-yl)piperidin-4-yl)methanol] | 6.00 to 6.30 |  |
| CC(C)n1cnc2c(NCc3ccccc3-n3cccn3)nc(N3CCC(CN)CC3)nc21 [Compound I-41, N-(2-(1H-pyrazol-1-yl)benzyl)-2-(4-(aminomethyl)piperidin-1-yl)-9-isopropyl-9H-purin-6-amine] | 6.30 to 7.00 |  |
| CC(C)c1n[nH]c2c(NCc3ccccc3-n3cccn3)nc(N3CCC(N)CC3)nc12 [II-1, N-(2-(1H-pyrazol-1-yl)benzyl)-5-(4-aminopiperidin-1-yl)-3-isopropyl-1H-pyrazolo[4,3-d]pyrimidin-7-amine hydrochloride] | > 7.00 |  |
| CC(C)c1n[nH]c2c(NCc3ccccc3-n3cccn3)nc(NC3CCNCC3)nc12 [II-2, N7-(2-(1H-pyrazol-1-yl)benzyl)-3-isopropyl-N5-(piperidin-4-yl)-1H-pyrazolo[4,3-d]pyrimidine-5,7-diamine] | > 7.00 |  |
